Data published in article PMC9297976 (Journal of Applied Toxicology, 2021).

Key:
[1] = tested on: Japanese medaka (Oryzias latipes); assay: Fish Short‐Term Reproduction Assay; assay type: in vivo; details: for LOECREPRO: LOEC on reproduction (fecundity and/or fertility); for minimal effective concentration: Oryzias latipes, 504 h, read-out: LOECmVTG; for LOECTOX: lowest observed effect concentration on mortality; for GSI Female / GSI Male / HSI Female / HSI Male / Length Female / Length Male / Weight Female / Weight Male: completion of exposure
medaka Esr1 (mEsr1) [2] = target: T1, medaka Esr1 (mEsr1) (Oryzias latipes, UniProt P50241); assay: cell-based; set-up: species or system Japanese medaka (Oryzias latipes); details: for In vitro positive: Esr: mode of action in which EC50 or PC10 was obtained in RGA
T1 sequence (P50241 1-620): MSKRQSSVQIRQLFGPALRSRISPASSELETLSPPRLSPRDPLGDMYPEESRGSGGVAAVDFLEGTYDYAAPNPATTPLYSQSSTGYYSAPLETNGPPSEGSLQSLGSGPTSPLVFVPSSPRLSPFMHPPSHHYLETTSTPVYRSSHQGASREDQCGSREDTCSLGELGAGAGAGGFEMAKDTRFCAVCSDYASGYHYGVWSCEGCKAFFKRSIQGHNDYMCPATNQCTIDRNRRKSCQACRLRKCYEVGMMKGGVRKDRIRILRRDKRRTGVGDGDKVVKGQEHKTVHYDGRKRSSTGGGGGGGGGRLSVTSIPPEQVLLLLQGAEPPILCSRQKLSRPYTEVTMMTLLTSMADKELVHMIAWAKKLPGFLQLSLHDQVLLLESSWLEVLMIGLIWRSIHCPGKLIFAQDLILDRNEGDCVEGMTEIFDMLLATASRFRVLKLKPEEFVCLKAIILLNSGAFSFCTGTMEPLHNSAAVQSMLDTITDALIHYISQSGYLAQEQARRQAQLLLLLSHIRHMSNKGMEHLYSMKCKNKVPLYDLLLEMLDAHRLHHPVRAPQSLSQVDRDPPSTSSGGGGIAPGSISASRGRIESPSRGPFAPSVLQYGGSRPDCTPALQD

medaka ARβ (mArβ) [3] = target: T2, medaka ARβ (mArβ) (Oryzias latipes, UniProt D1MV73); assay: Medaka ARβ reporter gene assay, antagonist assay; assay type: cell-based, Japanese medaka (Oryzias latipes)
T2 sequence (D1MV73 1-744): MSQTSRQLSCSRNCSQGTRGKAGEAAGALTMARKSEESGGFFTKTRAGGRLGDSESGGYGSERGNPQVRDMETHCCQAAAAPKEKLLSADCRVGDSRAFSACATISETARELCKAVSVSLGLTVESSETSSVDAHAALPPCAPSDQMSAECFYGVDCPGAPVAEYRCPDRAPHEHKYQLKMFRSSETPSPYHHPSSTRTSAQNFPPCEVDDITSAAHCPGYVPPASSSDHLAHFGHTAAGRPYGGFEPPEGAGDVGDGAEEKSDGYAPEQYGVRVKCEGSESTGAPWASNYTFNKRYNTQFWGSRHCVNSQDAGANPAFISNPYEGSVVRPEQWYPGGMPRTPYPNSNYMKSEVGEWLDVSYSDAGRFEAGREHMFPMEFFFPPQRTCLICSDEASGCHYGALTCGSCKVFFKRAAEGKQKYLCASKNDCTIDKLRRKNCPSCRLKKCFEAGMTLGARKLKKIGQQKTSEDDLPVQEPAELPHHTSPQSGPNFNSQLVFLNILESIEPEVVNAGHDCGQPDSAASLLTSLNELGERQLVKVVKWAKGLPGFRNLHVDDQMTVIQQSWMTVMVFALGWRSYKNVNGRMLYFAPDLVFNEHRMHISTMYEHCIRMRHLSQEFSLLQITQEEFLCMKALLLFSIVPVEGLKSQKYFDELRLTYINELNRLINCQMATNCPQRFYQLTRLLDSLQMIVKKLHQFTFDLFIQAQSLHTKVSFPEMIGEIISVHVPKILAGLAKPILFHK

medaka ARβ (mArβ) [4] = target: T2, medaka ARβ (mArβ); assay: Medaka ARβ reporter gene assay, agonist assay; assay type: cell-based, Japanese medaka (Oryzias latipes); details: MAC = 1.0 × 10^−5 M
medaka Esr1 (mEsr1) [5] = target: T1, medaka Esr1 (mEsr1); assay: Medaka Esr1 reporter gene assay, antagonist assay; assay type: cell-based, Japanese medaka (Oryzias latipes); details: E2 spiked at 1.0 nM (B); MAC = 1.0 × 10^−5 M
[6] = measured concentration 184 μg/L
[7] = measured concentration 836 μg/L
[8] = 4.67 mg/L measured, 21 d, sig. ↑ vs control
[9] = measured concentration 0.155 mg/L
[10] = measured concentration 0.826 mg/L
[11] = measured concentration 4.67 mg/L

CC(C)COC(=O)c1ccccc1C(=O)OCC(C)C [DIBP, Diisobutyl phthalate]
Fertility rate ([1]; 35 μg/L measured, 21 d): 97 ± 4.8% | Hepatic VTG, female ([1]; 35 μg/L measured, 21 d): 596 ± 144 ng/mg‐liver | Hepatic VTG, male ([1]; 35 μg/L measured, 21 d): 0.3 ± 0.4 ng/mg‐liver | Mortality ([1]; 35 μg/L measured, 21 d): 0.0% | Mortality, number of dead fish ([1]; 35 μg/L measured, 21 d): 0 | Number of fertilized eggs (per female per day) ([1]; 35 μg/L measured, 21 d): 23 ± 6.6 | Number of total eggs (per female per day) ([1]; 35 μg/L measured, 21 d): 24 ± 7.0 | SSC female (joint plates with papillary processes) ([1]; 35 μg/L measured, 21 d): 0 ± 0 | SSC male (joint plates with papillary processes) ([1]; 35 μg/L measured, 21 d): 96 ± 11 | Fertility rate ([1]; 184 μg/L measured, 21 d): 97 ± 3.9% | Hepatic VTG, male ([1]; 184 μg/L measured, 21 d): 0.2 ± 0.1 ng/mg‐liver | Mortality ([1]; 184 μg/L measured, 21 d): 0.0% | Mortality, number of dead fish ([1]; 184 μg/L measured, 21 d): 0 | Number of fertilized eggs (per female per day) ([1]; 184 μg/L measured, 21 d): 23 ± 6.9 | Number of total eggs (per female per day) ([1]; 184 μg/L measured, 21 d): 24 ± 7.2 | SSC female (joint plates with papillary processes) ([1]; 184 μg/L measured, 21 d): 0 ± 0 | SSC male (joint plates with papillary processes) ([1]; 184 μg/L measured, 21 d): 96 ± 10 | Hepatic VTG, female ([1]; 184 μg/L measured, 21 d, sig. ↓ vs control): 404 ± 85 ng/mg‐liver | Fertility rate ([1]; 836 μg/L measured, 21 d): 96 ± 5.4% | Hepatic VTG, male ([1]; 836 μg/L measured, 21 d): 2.2 ± 3.2 ng/mg‐liver | Mortality ([1]; 836 μg/L measured, 21 d): 0.0% | Mortality, number of dead fish ([1]; 836 μg/L measured, 21 d): 0 | Number of fertilized eggs (per female per day) ([1]; 836 μg/L measured, 21 d): 24 ± 5.9 | Number of total eggs (per female per day) ([1]; 836 μg/L measured, 21 d): 25 ± 5.8 | SSC female (joint plates with papillary processes) ([1]; 836 μg/L measured, 21 d): 0 ± 0 | SSC male (joint plates with papillary processes) ([1]; 836 μg/L measured, 21 d): 97 ± 18 | Hepatic VTG, female ([1]; 836 μg/L measured, 21 d, sig. ↓ vs control): 421 ± 73 ng/mg‐liver | LOECREPRO [1]: ND (>836) μg/L | minimal effective concentration [1]: > 0.836 µg/mL | LOECTOX [1]: ND (>836) μg/L | GSI Female ([1]; measured concentration 35 μg/L): 13.3 ± 2.3% | GSI Male ([1]; measured concentration 35 μg/L): 1.2 ± 0.2% | HSI Female ([1]; measured concentration 35 μg/L): 6.3 ± 1.60% | HSI Male ([1]; measured concentration 35 μg/L): 2.7 ± 0.40% | Length Female ([1]; measured concentration 35 μg/L): 33.6 ± 1.5 mm | Length Male ([1]; measured concentration 35 μg/L): 31.9 ± 1.2 mm | Weight Female ([1]; measured concentration 35 μg/L): 446 ± 48 mg | Weight Male ([1]; measured concentration 35 μg/L): 335 ± 39 mg | GSI Female [1, 6]: 13.6 ± 1.9% | GSI Male [1, 6]: 1.0 ± 0.3% | HSI Female [1, 6]: 6.3 ± 0.90% | HSI Male [1, 6]: 3.1 ± 0.40% | Length Female [1, 6]: 32.6 ± 1.5 mm | Length Male [1, 6]: 31.8 ± 1.4 mm | Weight Female [1, 6]: 405 ± 52 mg | Weight Male [1, 6]: 329 ± 55 mg | GSI Female [1, 7]: 12.0 ± 2.0% | GSI Male [1, 7]: 1.2 ± 0.4% | HSI Female [1, 7]: 5.9 ± 1.30% | HSI Male [1, 7]: 3.4 ± 0.40% | Length Female [1, 7]: 32.6 ± 1.4 mm | Length Male [1, 7]: 32.4 ± 1.7 mm | Weight Female [1, 7]: 413 ± 61 mg | Weight Male [1, 7]: 348 ± 62 mg | Agonistic activity PC10 (medaka Esr1 (mEsr1) [2]): PC10 = 3.0 × 10^−6 M | In vitro positive: Esr (medaka Esr1 (mEsr1) [2]): Esr | Antagonistic activity (medaka ARβ (mArβ) [3]; 11‐KT spiked at 50 nM (D), MAC = 1.0 × 10^−5 M): NE (MAC = 1.0 × 10^−5 M)^(D) | Agonistic activity (medaka ARβ (mArβ) [4]): NE (MAC = 1.0 × 10^−5 M) | Antagonistic activity (medaka Esr1 (mEsr1) [5]): NE (MAC = 1.0 × 10^−5 M)^(B)

CC(C)(c1ccc(O)cc1)c1ccc(O)cc1 [BPA, Bisphenol A]
Fertility rate ([1]; 0.155 mg/L measured, 21 d): 96 ± 2.1% | Hepatic VTG, female ([1]; 0.155 mg/L measured, 21 d): 435 ± 65 ng/mg‐liver | Hepatic VTG, male ([1]; 0.155 mg/L measured, 21 d): 0.5 ± 0.0 ng/mg‐liver | Mortality ([1]; 0.155 mg/L measured, 21 d): 17% | Mortality, number of dead fish ([1]; 0.155 mg/L measured, 21 d): 4 | Number of total eggs (per female per day) ([1]; 0.155 mg/L measured, 21 d): 14 ± 1.8 | SSC female (joint plates with papillary processes) ([1]; 0.155 mg/L measured, 21 d): 0 ± 0 | SSC male (joint plates with papillary processes) ([1]; 0.155 mg/L measured, 21 d): 74 ± 3.6 | Fertility rate ([1]; 0.826 mg/L measured, 21 d): 94 ± 1.9% | Hepatic VTG, female ([1]; 0.826 mg/L measured, 21 d): 768 ± 297 ng/mg‐liver | Hepatic VTG, male ([1]; 0.826 mg/L measured, 21 d): 0.5 ± 0.0 ng/mg‐liver | Mortality ([1]; 0.826 mg/L measured, 21 d): 8.3% | Mortality, number of dead fish ([1]; 0.826 mg/L measured, 21 d): 2 | Number of total eggs (per female per day) ([1]; 0.826 mg/L measured, 21 d): 14 ± 1.6 | SSC female (joint plates with papillary processes) ([1]; 0.826 mg/L measured, 21 d): 0 ± 0 | SSC male (joint plates with papillary processes) ([1]; 0.826 mg/L measured, 21 d): 71 ± 4.2 | Hepatic VTG, female ([1]; 4.67 mg/L measured, 21 d): 3,456 ng/mg‐liver | SSC female (joint plates with papillary processes) ([1]; 4.67 mg/L measured, 21 d): 0 ± 0 | SSC male (joint plates with papillary processes) ([1]; 4.67 mg/L measured, 21 d): 76 ± 5.7 | Hepatic VTG, male [1, 8]: 2,804 ± 811 ng/mg‐liver | Mortality [1, 8]: 71% | Mortality, number of dead fish [1, 8]: 17 | Fertility rate ([1]; 4.67 mg/L measured, 21 d, sig. ↓ vs control): 59 ± 25% | Fecundity, number of total eggs (in words) ([1]; 21 d): statistically significant decrease | LOEC, elevated hepatic VTG in males ([1]; 21 d): 4.67 mg/L | LOECREPRO [1]: 4,670 μg/L | minimal effective concentration [1]: 4.67 µg/mL | Fertility rate (in words) ([1]; at concentrations that did not affect number of total eggs): significant decrease | LOECTOX [1]: 4,670 μg/L | GSI Female [1, 9]: 6.8 ± 0.5% | GSI Male [1, 9]: 0.91 ± 0.13% | HSI Female [1, 9]: 3.4 ± 0.46% | HSI Male [1, 9]: 2.1 ± 0.40% | Length Female [1, 9]: 31.7 ± 0.9 mm | Length Male [1, 9]: 33.2 ± 0.9 mm | Weight Female [1, 9]: 313 ± 23 mg | Weight Male [1, 9]: 290 ± 23 mg | GSI Female [1, 10]: 6.0 ± 1.0% | GSI Male [1, 10]: 0.80 ± 0.23% | HSI Female [1, 10]: 3.3 ± 0.75% | HSI Male [1, 10]: 2.3 ± 0.45% | Length Female [1, 10]: 32.0 ± 0.9 mm | Length Male [1, 10]: 32.5 ± 0.9 mm | Weight Female [1, 10]: 342 ± 20 mg | Weight Male [1, 10]: 310 ± 10 mg | GSI Female [1, 11]: 2.3% | GSI Male [1, 11]: 0.77 ± 0.23% | HSI Female [1, 11]: 4.8% | HSI Male [1, 11]: 3.4 ± 1.15% | Length Female [1, 11]: 30.6 mm | Length Male [1, 11]: 33.6 ± 1.9 mm | Weight Female [1, 11]: 281 mg | Weight Male [1, 11]: 370 ± 72 mg | EC50 (medaka Esr1 (mEsr1) [2]): 86 nM | In vitro positive: Esr (medaka Esr1 (mEsr1) [2]): Esr | IC50 (medaka ARβ (mArβ) [3]): 7 µM | In vitro positive: aAr (medaka ARβ (mArβ) [3]; mode of action in which IC50 or IC30 was obtained in RGA): aAr | Antagonistic activity on mArβ (in words) (medaka ARβ (mArβ) [3]; transcriptional activity on mArβ by 11KT): inhibitory potency | Agonistic activity (medaka ARβ (mArβ) [4]): NE (MAC = 1.0 × 10^−5 M) | Antagonistic activity (medaka Esr1 (mEsr1) [5]): NE (MAC = 1.0 × 10^−5 M)^(B)
